These results are taken from US8268861B2, “P2X7R antagonists and their use” (Affectis Pharmaceuticals AG, priority 2009, dated 2012).

One assay has as its target T1, human P2X7R (Homo sapiens, UniProt Q99572).
T1 construct: expressed in transfected cells
T1 sequence (Q99572 1-595): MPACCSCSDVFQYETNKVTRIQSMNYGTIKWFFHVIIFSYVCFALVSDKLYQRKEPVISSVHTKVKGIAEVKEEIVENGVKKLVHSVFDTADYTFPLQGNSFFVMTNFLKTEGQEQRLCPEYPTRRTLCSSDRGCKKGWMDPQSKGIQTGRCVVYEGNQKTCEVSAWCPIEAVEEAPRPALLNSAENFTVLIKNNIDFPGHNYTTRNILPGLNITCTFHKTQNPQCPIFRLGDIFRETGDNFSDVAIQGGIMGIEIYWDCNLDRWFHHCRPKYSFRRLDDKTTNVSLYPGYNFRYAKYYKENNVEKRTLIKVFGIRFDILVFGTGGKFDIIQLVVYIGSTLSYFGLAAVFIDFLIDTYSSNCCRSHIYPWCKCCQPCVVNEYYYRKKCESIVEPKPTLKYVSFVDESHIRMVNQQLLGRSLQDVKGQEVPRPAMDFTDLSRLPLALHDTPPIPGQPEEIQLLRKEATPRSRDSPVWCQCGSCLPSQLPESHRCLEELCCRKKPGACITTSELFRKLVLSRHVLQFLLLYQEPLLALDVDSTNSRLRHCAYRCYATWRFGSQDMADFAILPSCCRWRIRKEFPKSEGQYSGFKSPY
Description: Inhibition of Bz-ATP-stimulated calcium influx in Hek293 cells stably transfected with human P2X7R (Fluo-4-AM). The class given is cell-based. Particulars: Hek293 cells expressing human P2X7R, 100 μM Bz-ATP, 15 minute incubation with test compound. The protocol:
Inhibition of P2X7R activity by the compounds of the present invention is assessed by measuring calcium influx in Hek293 cells (ECACC No. 85120602) which have been stably transfected with a cDNA for the human P2X7R.
Hek293 cells expressing P2X7R were generated by lipofectamine transfection of the human P2X7R cDNA (Genbank accession number BC011913) under the control of the human cytomegalovirus immediate-early (CMV) promoter and inserted into the pcDNA3.1 vector (Invitrogen). […]
Inhibition of Bz-ATP-stimulated P2X7R by test compounds was monitored by measuring changes in calcium influx using the Fluo-4-AM fluorescent dye according to the manufacturer's recommendations (Molecular Devices Corporation, U.S.A.). […] After a 15 minute incubation, 100 μM Bz-ATP was added and fluorescence was measured in a FlexStation II (Molecular Devices, U.S.A.) according to the following parameters: 485 nm Excitation Wavelength; 525 nm Emission Wavelength; 515 nm Emission Cut-off; 100 μl Pipette Height; 25 μl Transfer Volume; 5 fold Compound Concentration; 3 rate Addition Speed. […] The fluorescence data were processed using a lag time of 15 seconds, recording 45 seconds, zero baseline calibrated using 2 points, and % baseline multiplier set at 3. […]

In the next assay the test system is IL-1 beta secretion. Description: IL-1 beta secretion by LPS/BzATP-stimulated isolated human monocytes (macrophages), ELISA. It counts as cell-based. Conditions: 1 μg/mL LPS 2 hours, 100 μM BzATP 30 minutes, compound added 5 minutes before BzATP, FIG. 1, p<0.01. The method, then:
The effects of compounds of the present invention on IL-1 beta secretion is assessed using isolated human monocytes.
Briefly, human monocytes were purified from human blood by Ficoll-Paque from Buffy coats as follows. The Buffy coat is a greyish white layer of white blood cells and platelets that accumulates on the surface of sedimented erythrocytes when blood is allowed to stand or is centrifuged. Each Buffy coat (one per donor) was diluted with PBS and 20 ml added on top of 15 ml of Ficoll-Paque. The gradient was centrifuged at 900 g for 20 min at room temperature. […] At day 5, the cells were counted, resuspended in RPMI 1640 supplemented with 5% human serum at a concentration of 1×10^6/ml and plated onto a 24 wells plate (5×10^5 cells/well). […]
The day of experiment, the macrophages were pre-stimulated for 2 hours with 1 μg/mL LPS at 37° C. […] After incubation, the supernatants were collected by centrifugation (250 g for 5 minutes) and IL-1β secretion was measured by using the human IL-1 beta/IL-1F2 Quantikine ELISA Kit following manufacturer's instructions. […] The O.D. at 450 nm was measured for each data points and the IL-1β concentration calculated based on a standard curve. The […] concentration was further calculated to have a concentration in pg/mL/10E+6 cells, together with its standard deviation.
A general note: An ELISA detects its analyte on a solid surface through an enzyme-linked reagent.

The structures appear in SMILES notation. pIC50: −log10 of the molar value.

With `O=C(CC1CCCCCC1)Nc1cn(CCO)c2cccc(Cl)c12` [Example 2, N-(4-chloro-1-(2-hydroxyethyl)-1H-indol-3-yl)-2-cycloheptylacetamide], on human P2X7R, the pIC50 – broadly, the IC50 on a negative log10 scale, so that one unit is a factor of ten – was approximately 8.42. In the assay with IL-1 beta secretion, the IL-1beta secretion entry is “reduced IL-1beta secretion”.
